According to ChEMBL document CHEMBL1129815, “Ester prodrugs of ampicillin tailored for intracellular accumulation” (Bioorg Med Chem Lett, 1997):
≈ marks a conversion by molar mass, not a printed value.

Assays:
[1] = Half-life in 0.02 M phosphate buffer, 0.15 M NaCl, at a pH of 7.4, at 37 degree Celsius was determined; assay type: ADME; conditions: pH 7.4
Staphylococcus aureus = assay: The minimum inhibition concentration (MIC) against Staphylococcus aureus after hydrolysis 24 hr in phosphate buffer was determined; assay type: functional

| SMILES | half-life [1] [h] | MIC (Staphylococcus aureus) [µM] |
| --- | --- | --- |
| CC1(C)S[C@@H]2[C@H](NC(=O)[C@H](N)c3ccccc3)C(=O)N2[C@H]1C(=O)OCn1c(=O)oc2ccccc21 | 2.5 |  |
| CC1(C)S[C@@H]2[C@H](NC(=O)[C@H](N)c3ccccc3)C(=O)N2[C@H]1C(=O)OCN1C(=O)CCCC1=O | 3 |  |
| CC1(C)S[C@@H]2[C@H](NC(=O)[C@H](N)c3ccccc3)C(=O)N2[C@H]1C(=O)OCN1C(=O)CCC1=O | 2.5 |  |
| CC1(C)S[C@@H]2[C@H](NC(=O)[C@H](N)c3ccccc3)C(=O)N2[C@H]1C(=O)OCN1C(=O)CC(=C2CCCCC2)C1=O [listing 1 of 2 here] | 5.13 |  |
| CC1(C)S[C@@H]2[C@H](NC(=O)[C@H](N)c3ccccc3)C(=O)N2[C@H]1C(=O)OCN1C(=O)CC(=C2CCCCC2)C1=O [listing 2 of 2 here] |  | 1.16 (≈ 0.627 µg/mL) |
| CC1(C)S[C@@H]2[C@H](NC(=O)[C@H](N)c3ccccc3)C(=O)N2[C@H]1C(=O)OCN1C(=O)c2ccccc2S1(=O)=O | 1.08 |  |
| CC1(C)S[C@@H]2[C@H](NC(=O)[C@H](N)c3ccccc3)C(=O)N2[C@H]1C(=O)OCOc1ccccc1 | 3.58 |  |
| CC1(C)S[C@@H]2[C@H](NC(=O)[C@H](N)c3ccccc3)C(=O)N2[C@H]1C(=O)OCN1C(=O)c2ccccc2C1=O [listing 1 of 2 here] | 1.08 |  |
| CC1(C)S[C@@H]2[C@H](NC(=O)[C@H](N)c3ccccc3)C(=O)N2[C@H]1C(=O)OCN1C(=O)c2ccccc2C1=O [listing 2 of 2 here] |  | 0.53 (≈ 0.27 µg/mL) |
| CC(C)(C)C(=O)OCOC(=O)[C@@H]1N2C(=O)[C@@H](NC(=O)C(N)c3ccccc3)[C@H]2SC1(C)C (single isomer, unassigned) [PIVAMPICILLIN] | 2 | 0.65 (≈ 0.301 µg/mL) |
